# Reference: patent publication US6521609B1, “Use of CGRP antagonists and CGRP release inhibitors for combating menopausal hot flushes” (Boehringer Ingelheim Pharma KG, priority 1999, dated 2003)
# Test system: increased blood flow through the facial skin caused by endogenous CGRP
# Experiment: Trigeminal ganglion stimulation in marmosets: facial skin blood flow (laser Doppler)
# Type: in vivo, marmoset
# Conditions: anaesthetized marmosets, i.v. 5 minutes before trigeminal ganglion stimulation (10 Hz, 2 mA, 2 msec, 30 seconds)
# Experimental: The efficacy of the following test substances was characterised by determining the dose administered i.v. which reduces by 50% the increased blood flow through the skin of the face which has been brought about by endogenous CGRP:
# Marmosets of both sexes (300-400 g) are anaesthetized with pentobarbital (initially with 30 mg/kg, i.p., followed by infusion of 6 mg/kg/h, […].). The body temperature is maintained at 37° C. using a heating plate. Pancuronium is administered as a muscle relaxant (initially 1 mg/kg, 0.5 mg after each hour thereafter). The animal's head is secured in a stereotactical apparatus. After the skin on the head has been opened using a lengthwise incision, a small hole is drilled in the skull and a bipolar electrode (Rhodes SNES 100) is lowered into the trigeminal ganglion. […] The petrous bone serves as a guide for placing the electrode (CCX-Digital X-ray apparatus). The position of the electrode in the ganglion is monitored at the end of each experiment. The stimulation parameters are: 10 Hz, 2 mA, 2 msec, for 30 seconds. The blood flow in the micro-vessels of the facial skin is determined by laser Doppler flow measurement using a PeriFlux Laser Doppler System. The animals are exposed to 2 to 3 stimulation periods at intervals of 30 minutes in each case. The first stimulation serves as a reference value for the other stimulations. The test substances are administered i.v. 5 minutes before the 2nd and 3rd stimulation periods.
row,SMILES,50% dose (i.v. dose which reduces by 50% the increased blood flow through the facial skin caused by endogenous CGRP) [mg/kg]
1,Nc1c(Br)cc(C[C@@H](NC(=O)N2CCC(N3Cc4ccccc4NC3=O)CC2)C(=O)N2CCC(N3CCCCC3)CC2)cc1Br [AM],0.046
2,CNS(=O)(=O)Cc1ccc2[nH]cc(CCN(C)C)c2c1 [DA],0.280
3,CN(C)CCc1c[nH]c2ccc(C[C@H]3COC(=O)N3)cc12 [DB],0.035
